Measured values published in patent publication US9789211B2, “Methods and compositions for positron emission tomography myocardial perfusion imaging” (UNIVERSITY OF SOUTHERN CALIFORNIA, priority 2012, dated 2017).

How the values were obtained:
[1] = tested on: H345 lung carcinoma cells; assay: mitochondrial membrane potential-dependent cellular uptake with CCCP treatment; assay type: cell-based; details: H345 cells incubated 10 min with CCCP before adding tracers
Protocol: Uptake kinetics of ^64Cu-Sar-TPP and 3H-TPP (standard) may be examined in H345 lung carcinoma cells. In brief, H345 cells will be harvested by trypsinization and washed twice with cold PBS buffer. Cells are counted and re-suspended in loading buffer at a concentration of 2×10^6 cells/mL. The cell suspension (0.5 mL) may be transferred to Eppendorf tubes and incubated at 37° C. for 60 min. An equal volume of loading solution containing 0.5-5 nM ^64Cu-Sar-TPP and 3H-TPP will be added. The sample may be centrifuged (800 rpm, 5 min) to terminate the uptake. Aliquots of the supernatant are then obtained and the remaining solution is aspirated. The radioactivity of the pellet and supernatant is counted together with standard solution ( 1/1,000) in a gamma counter. After completion of gamma counting, scintillation counting are performed after the complete decay of ^64Cu (two weeks). Cell uptake values of ^64Cu-Sar-TPP in H345 cells may be determined over incubation periods of 0.5, 1, 2, 4, and 24 h. […] The mitochondrial membrane potential-dependent cellular uptake of ^64Cu-Sar-TPP will be further assessed using the H345 cells treated with carbonyl cyanide m-chlorophenylhydrazone (CCCP). […] Only the ^64Cu-Sar-TPP probes that are sensitive towards CCCP will be evaluated in future investigation because this experiment supports the tracer uptakes are depend on mitochondria potential as we proposed above.

[2] = cited from earlier work
[3] = cited from earlier work; remark: listed apart in the source

N#CC(C#N)=NNc1cccc(Cl)c1 [CCCP, carbonyl cyanide m-chlorophenylhydrazone]
cell-associated activity of ^64Cu-Sar-TPP and 3H-TPP [1]: dose dependent decrease

[C-]#[N+]CC(C)(C)OC.[C-]#[N+]CC(C)(C)OC.[C-]#[N+]CC(C)(C)OC.[C-]#[N+]CC(C)(C)OC.[C-]#[N+]CC(C)(C)OC.[C-]#[N+]CC(C)(C)OC.[Tc] [^99mTc-sestamibi]
log P [2]: 1.1

^64/62Cu-pyruvaldehyde-bis(N4-methyl-thiosemicarbazone) [[^64/62Cu]-PTSM]
clearance from the blood pool ([3]; association with serum albumin): clears slowly | liver uptake ([3]; spillover into the inferior wall of myocardial): high liver uptake
